Like-named read-outs stand apart in the source and are kept apart here.
Tests used:
Format in all cases: cell-based
[1] = system: chondrosarcoma cells (SW1353); assay: Alamar blue staining of chondrosarcoma; conditions: Homo sapiens
Description: (§1) The hyaluronan synthase activity (Prehm, P. and Schumacher, U., Biochem. Pharmacol. 2004, 68, 1401-1410), the cytotoxicity of the drugs (O'Brien, J. et al., Eur. J. Biochem. 2000, 267, 5421-5426), proteoglycan synthesis rate, hyaluronan (Prehm, P. J. Rheumatol., 2005, 32, 690-696) and proteoglycan (Bjornsson, S. Anal. Biochem. 1993, 210, 282-291) were determined as described. The effect of the prenylflavonoids on the MRP5 export rate was measured with fluorescein diacetate as described (Schulz, T., Schumacher, U., and Prehm, P., J Biol. Chem., 2007, 282, 20999-21004). The determination of the IC50 values on the phosphodiesterase 5 was performed according to the instructions of BPS Bioscience. The culture of bovine chondrocytes in alginate beads and of explants of bovine cartilage was described previously (Deiters, B. and Prehm, P. Arthritis Res. Ther., 2008, 10, R8; Prehm, P. J. Rheumatol. 2005, 32, 690-696). Osteoarthritic reactions were induced in chondrocytes growing in alginate beads by incubation with medium containing 10 ng/ml of II-17 for 6 days, and in cartilage explants with 10 ng/ml of II-17 and 5 ng/ml of II-1α. The supernatants were withdrawn and stored at −20° C. for later analysis. The explants were weighed and extracted with 1 ml of 4 M guanidinium-HCl for 72 hours at 4° C. The proteoglycan concentrations were determined in the extracts.
Chondrosarcoma cells (SW1353 from the American Type Culture Collection) were grown in Dulbecco's medium supplemented with streptomycin/penicillin (100 units of each/ml), 10% foetal calf serum or in serum free Quantum medium supplemented with streptomycin/penicillin (100 units of each/ml), kanamycin (100 units/ml).

chondrosarcoma cells [2] = assay: Uptake of flavonoids into chondrosarcoma cells by intracellular fluorescence
Description: Confluent monolayers of chondrosarcoma cells on 96 well microtiter plates were incubated with 100 μM solutions of flavonoids in serum-free Quantum medium. Changes in fluorescence were monitored from the bottom of the wells at excitation and emission wavelengths of 340 nm and 450 nm for xanthohumol and at 440 nm and 530 nm for quercetin, respectively.
Flavonoids are weakly fluorescent in aqueous buffer, but greatly enhance the fluorescence in the presence of proteins (Sengupta, B. and Sengupta, P. K., Biochem. Biophys. Res. Commun., 2002, 299, 400-403). This property was used to follow the uptake of quercetin and xanthohumol into chondrosarcoma cells.

[3] = system: hyaluronan export from chondrosarcoma cells; assay: Inhibition of hyaluronan export / production in chondrosarcoma cells; conditions: for inhibition of hyaluronan export: culture supernatant after 2 days, comparison with parent compound, particularly below 3 μM
Description: as §1
Chondrosarcoma cells were plated on a 96 well microtiter plate and in the presence of increasing flavonoid concentrations. After 2 days the concentration of hyaluronan was determined in the culture supernatant.

[4] = Alamar blue toxicity assay (FIG. 1); conditions: below concentrations of 100 μM
Description: as §1
The toxicity was determined by the Alamar blue assay.

[5] = system: bovine cartilage explants; assay: Proteoglycan loss from interleukin activated bovine cartilage explants; conditions: interleukin stimulated, 5 days
Description: Cartilage explants were weighed (average wet weight: 20 mg) incubated in the absence and presence of IL-1 (2 ng/ml) and the inhibitors at various concentrations for 5 days. The tissues were extracted with 1.5 ml of a solution of 4 M guanidinium hydrochloride, 0.1 M ε-aminohexanoid acid, 5 mM benzamidine, 10 mM N-ethylmaleinimide, 0.5 mM phenylmethylsulfonyl fluoride for 3 days at 4° C. The solution was centrifuged for 5 min at 10.000 g and the proteoglycans were determined in the supernatant by the alcian blue method as described (Bjornsson, S., Anal. Biochem., 1993, 210, 282-291).
Bovine cartilage explants were incubated in the absence and presence of interleukin for stimulation of osteoarthritic reactions and the indicated concentrations of the xanthohumol-betaine (FIG. 6A), xanthohumol-prothiazole (FIG. 6B), quercetin-prothiazole (FIG. 6C), quercetin (FIG. 6D) and xanthohumol (FIG. 6E) for 5 days. The cartilage explants were weighed and the proteoglycan concentrations were determined in the cartilage explants (solid bars) and culture supernatants (open bars).

chondrosarcoma cells [6] = assay: Inhibition of chondrosarcoma cell growth (Coulter counter); conditions: cell numbers after 2 days
Description: Chondrosarcoma cells were plated on a 24 well microtiter plate and in the presence of increasing flavonoid concentrations. After 2 days the cells were trypsinized and the cell numbers were determined in a Coulter counter.

fibroblasts = assay: Alamar blue staining of fibroblasts; conditions: Fibroblast
Description: as §1

SMILES: O=c1c(O)c(-c2ccc(O)c(O)c2)oc2cc(O)cc(O)c12 [Quercetin, reference compound]
- IC50 [1]: 70 µM
- uptake into chondrosarcoma cells (intracellular fluorescence) (chondrosarcoma cells [2]; concentration dependence, FIG. 2A): did not accumulate inside the cells
- IC50 [3]: 16 µM
- toxicity in Alamar blue assay [4]: not toxic

SMILES: CC(=O)S/C=C\N(C=O)CC(=O)Oc1ccc(-c2oc3cc(O)cc(O)c3c(=O)c2O)cc1O [Quercetin-prothiazole, (Z)-2-hydroxy-4-(3,5,7-trihydroxy-4-oxo-4H-chromen-2-yl)phenyl 2-(N-(2-(acetylthio)vinyl)formamido)acetate]
- IC50 [1]: 61 µM
- inhibition of proteoglycan loss (protective effect) [5]: similarly effective
- uptake into chondrosarcoma cells (intracellular fluorescence) (chondrosarcoma cells [2]): taken up in a concentration dependent manner
- inhibition of chondrosarcoma cell growth (chondrosarcoma cells [6]): more effective at submicromolar concentrations
- IC50 [3]: 8 µM
- inhibition of hyaluronan export [3]: more effective than their parent compound
- IC50 (fibroblasts): 66 µM
- toxicity in Alamar blue assay [4]: not toxic

SMILES: COc1cc(O)c(CC=C(C)C)c(O)c1C(=O)/C=C/c1ccc(OC(=O)CN(C=O)/C=C\SC(C)=O)cc1 [Xanthohumol-prothiazole, 4-((E)-3-(2,4-dihydroxy-6-methoxy-3-(3-methylbut-2-en-1-yl)phenyl)-3-oxoprop-1-en-1-yl)phenyl 2-(N-((Z)-2-(acetylthio)vinyl)formamido)acetate]
- IC50 [1]: 69 µM
- inhibition of proteoglycan loss (protective effect) [5]: similarly effective
- uptake into chondrosarcoma cells (intracellular fluorescence) (chondrosarcoma cells [2]): taken up in a concentration dependent manner
- inhibition of chondrosarcoma cell growth (chondrosarcoma cells [6]): more effective at submicromolar concentrations
- IC50 [3]: 20 µM
- inhibition of hyaluronan export [3]: more effective than their parent compound
- IC50 (fibroblasts): 74 µM
- toxicity in Alamar blue assay [4]: not toxic

From patent US20250017888A1, “COMPOUNDS FOR TREATING DISEASES ASSOCIATED WITH HYALURONAN OVERPRODUCTION” (THE ROYAL VETERINARY COLLEGE, priority 2021, published 2025)
